Patent US20260306641A1, “HELICASE DEGRADERS” (priority 2023, published 2026)

Legend:
[1] = system: T1, human CMG helicase (hCMG); test: hCMG helicase fork-unwinding (strand displacement) assay; assay type: biochemical; settings: for inhibition of hCMG helicase activity, SAR set: 500 μM compound
T1 construct: made in house; host or cells: High Five insect cells, baculovirus (11 viruses co-infected)
Description: The human CMG helicase was purified following the established and validated protocol of Hurwitz and colleagues(19,20), with minor modifications. A detailed description of the approach is shown here, to allow for comparisons to the methods described by the Hurwitz group.
High Five insect cells (2-3 million cells/ml, 1.5 L), were in cultured in a shaking incubator at 27° C. in suspension with ESF921 serum free medium (Expression Systems, CA; cat. #96-001-01), then co-infected for 60 hrs with 11 baculoviruses expressing human 6His2Flag-Cdc45, the human MCM hexamer (Mcm2, Mcm3, Mcm4, Mem5, Mcm6, Mcm7), and human GINS (GST-Sld5, Psf3, Psf2, and Psf1). Each virus was infected at an MOI of ~10 from individual virus stocks. Infected cells were harvested by centrifugation at 650×g for 5 min at 4° C., washed with cold PBS, frozen on dry ice, and stored at −80° C. until use. The cell pellet (~20 mL) was thawed on ice, resuspended in 45 ml Hypotonic Buffer [20 mM Hepes-NaOH (pH 7.5), 5 mM KCl, 1.5 mM MgCl2] with protease inhibitors (1 mM [COMPOUND LEFT OUT], 1 mM Benzamidine, 0.15 μM Aprotinin, 4 μM Leupeptin, and 1 μM Antipain), and kept on ice for 10 min before lysing by Dounce homogenization (tight fitting, 60 strokes). The cell extract was adjusted to 0.42 M potassium acetate and centrifuged at 43,000×g for 1 hr at 4° C. The cleared lysate was mixed with 0.75 ml glutathione beads (cat. #17-0756-05; GE Healthcare) pre-equilibrated with FEQ buffer [20 mM Hepes-NaOH (pH 7.5), 0.42 M potassium acetate, 5 mM KCl, 1.5 mM MgCl2] and incubated by rotation at 4° C. overnight. Following centrifugation at 290×g at 4° C., the bound glutathione beads were washed four times (15 min each wash) with 40 ml of FW buffer [20 mM Hepes-NaOH (pH 7.5), 0.42 M potassium acetate, 1 mM DTT, 1 mM EDTA, 0.01% NP40, 10% glycerol (vol/vol) with protease inhibitors as above] containing protease inhibitors (as above). Bound proteins were eluted at 4° C. three times (1 hr each elution) with 3.5 ml Q buffer [20 mM Hepes-NaOH (pH 7.5), 1 mM DTT, 1 mM EDTA, 0.01% NP40, 10% glycerol (vol/vol), and protease inhibitors as above] containing 0.15 M potassium acetate and 20 mM reduced glutathione. The eluted fractions were combined and applied to a HiTrap Q-Sepharose FF column (HiTrap Q FF 1 mL, cat. #17505301, Cytiva), pre-equilibrated 3× with 5 ml of Q buffer containing 0.15 M, 0.75 M, 0.15M potassium acetate, in sequence. The Q-Sepharose FF column was washed with 10 ml of FW buffer containing protease inhibitors (as above). The proteins were eluted with 10 ml of Q buffer containing 0.75 M potassium acetate. The eluted fraction was mixed with 0.15 ml of anti-Flag M2 affinity gel/beads and incubated while rotating at 4° C. overnight. After centrifugation at 290×g for 5 min at 4° C., the beads were washed three times with 10 ml PreScission buffer [50 mM Tris-HCl (pH 7.5), 0.15 M NaCl, 1 mM DTT, 1 mM EDTA] for 15 min at 4° C., and eluted at 4° C. three times (1 hr each elution) with 0.2 ml PreScission enzyme buffer containing 0.2 mg/ml 3×-Flag peptides. The combined eluates were incubated with 20 Units of PreScission Protease (GE Healthcare) and 0.1 mL glutathione beads for 4 hr at 4° C. The supernatant was layered onto a 15-40% glycerol gradient [25 mM Tris-HCl (pH 7.5), 50 mM NaCl, 1 mM DTT, 1 mM EDTA, 0.01% NP40, protease inhibitors as above] in a 5 mL ultra-centrifugation tube and centrifuged at 260,000×g for 14 hr at 4° C. Glycerol fractions (0.15 mL each fraction) were collected from bottom of tube and stored at −80° C. until use. Typically, fractions 6-9 contained complete hCMG (~750-800 kDa) and co-migrated with thyroglobulin.
Helicase fork-unwinding assays were performed at 37° C. for 1 hr in 20 μL reaction volumes using 2-4 μl of hCMG (~15-30 fmol), in a buffer consisting of 25 mM Hepes-NaOH (pH 7.5), 5 mM NaCl, 0.5 mM ATP, 10 mM magnesium acetate, 1 mM DTT, 0.1 mg/ml bovine serum albumin (BSA), and ~10 fmol of radiolabeled DNA forks (20). […]

HaCaT cells = test: BrdU labeling of DNA replication in synchronized HaCaT cells; assay type: cell-based, human; settings: treated at 18 hrs, analyzed 3 hrs later; CA1/novobiocin 15 μM, etoposide 5 μM
Description: Verification of synchronization and determination of drug effects was performed by measuring the incorporation of bromo-deoxyuridine (BrdU) into replicating foci within nuclei. At times indicated, cells were pulse-labeled with 15 μM BrdU for 30 min, fixed with 4% paraformaldehyde, and analyzed by standard immunofluorescent techniques(40,51) with an anti-BrdU monoclonal antibody (Roche, clone no. BMC9318, RRID:AB_2313622). The average counts of three fields of 100 or more cells were used to determine the percentages of BrdU-labeled nuclei, +/−1 s.d.

[2] = system: MCM/CMG and replisome proteins in HaCaT cells; test: Immunoblots of chromatin-bound or total proteins, synchronized HaCaT cells; assay type: cell-based, human; settings: S-phase cells; etoposide 5 μM
[3] = system: T1, human CMG helicase (hCMG); test: hCMG ATPase activity, FP ADP^2 Transcreener assay; assay type: biochemical; settings: role: product, 15 fmol hCMG, 500 μM ATP
Description: The fluorescent-polarization (FP) ADP-sensing assays were performed using the Transcreener® ADP^2 FP assay kit (cat #3010-1K, Bellbrook Labs). For hCMG inhibitor screening, assays were performed at 37° C. for 1 hr in 10 μl reactions in a 384-well plate (cat. #4514, Corning) using 2 μL of hCMG (~15 fmol), 25 mM Hepes-NaOH (pH 7.5), 10 mM NaCl, 0.5 mM ATP, 10 mM magnesium acetate, 1 mM DTT, 0.1 mg/ml BSA, and DNA fork substrates. […] Selected inhibitors or samples from a chemical library were added into the reactions when conducting the screening or testing inhibitor effectiveness. The NCI Diversity Set VI chemical library was obtained from the National Cancer Institute (Bethesda, MD).
The window of sensitivity for the ADP-sensing assays is determined by setting up two 10 μL control samples without any added hCMG helicase: a Low-FP mixture (4 nM ADP Alexa Fluor-633 Tracer alone) and a High-FP mixture (4 nM ADP Alexa Fluor-633 Tracer plus patented anti-ADP^2 Antibody). The amount of ADP^2 Antibody used had to be adjusted to account for the use of 500 μM ATP in our hCMG assays, versus 10 μM ATP in enzyme reactions typically assessed with standard kits prepared by BellBrook Labs. […] This was done according to the manufacturer by performing a titration with increasing ADP^2 Antibody, fixed 4 nM ADP Alexa Fluor-633 Tracer, and 500 μM ATP to determine the ~EC80-85 for millipol (mP) changes, which determined the optimal ADP^2 Antibody concentration to use as 0.64 mg/ml (FIG. 9A). Samples are read with a Perkin Elmer Envision II plate reader with optimized Cy5 (far-red) FP-compatible mirror and cubes (cat #2100-8390, Perkin Elmer). The Low-FP sample is the least polarized and gives a low mP reading, while the High-FP sample is the most polarized and gives the highest mP reading. The difference between the Low-FP and High-FP values defines the FP assay window, which is normally in a range of 150-200 mP under ideal conditions for screening purposes. The hCMG helicase hydrolyzes ATP to ADP and decreases the mP reading within this window, with an ideal change (ΔmP) in the FP window of at least 50% to be in a readable range for inhibitor screening (as per manufacturer). Potential hCMG chemical inhibitors reverse this effect and cause the mP readings to increase.
We performed a titration with increasing and decreasing concentrations of ADP and ATP, respectively, to assess the sensitivity of the FP assay in detecting ADP production (FIG. 9B). Consistent with the stated manufacturer predictions, the assay can reliably detect 1-3% changes in ADP production (i.e., 5-15 μM ADP production) in starting concentrations of ATP of 500 μM, with a Z′ efficiency between 0.6-0.8 (determined following manufacturer protocols).
Once the hCMG enzyme reactions are complete, 10 μL of 1× Stop Solution and Detection Buffer (buffer from BellBrook Labs; containing 4 nM ADP Alexa Fluor-633 Tracer plus ADP^2 Antibody) are added to each reaction, and to the High-FP control. The Low-FP control receives 10 μL of 1× Stop Solution and Detection Buffer containing only 4 nM ADP Alexa Fluor-633 Tracer (no Antibody). Samples are incubated at 25° C. for 1 hr, then read in the plate reader. […] Plate readings from these tests of potential positive hits should be similar to that seen with the Low-FP control, or such hits may instead be false-positives.

T1 sequence (P49736 whole entry): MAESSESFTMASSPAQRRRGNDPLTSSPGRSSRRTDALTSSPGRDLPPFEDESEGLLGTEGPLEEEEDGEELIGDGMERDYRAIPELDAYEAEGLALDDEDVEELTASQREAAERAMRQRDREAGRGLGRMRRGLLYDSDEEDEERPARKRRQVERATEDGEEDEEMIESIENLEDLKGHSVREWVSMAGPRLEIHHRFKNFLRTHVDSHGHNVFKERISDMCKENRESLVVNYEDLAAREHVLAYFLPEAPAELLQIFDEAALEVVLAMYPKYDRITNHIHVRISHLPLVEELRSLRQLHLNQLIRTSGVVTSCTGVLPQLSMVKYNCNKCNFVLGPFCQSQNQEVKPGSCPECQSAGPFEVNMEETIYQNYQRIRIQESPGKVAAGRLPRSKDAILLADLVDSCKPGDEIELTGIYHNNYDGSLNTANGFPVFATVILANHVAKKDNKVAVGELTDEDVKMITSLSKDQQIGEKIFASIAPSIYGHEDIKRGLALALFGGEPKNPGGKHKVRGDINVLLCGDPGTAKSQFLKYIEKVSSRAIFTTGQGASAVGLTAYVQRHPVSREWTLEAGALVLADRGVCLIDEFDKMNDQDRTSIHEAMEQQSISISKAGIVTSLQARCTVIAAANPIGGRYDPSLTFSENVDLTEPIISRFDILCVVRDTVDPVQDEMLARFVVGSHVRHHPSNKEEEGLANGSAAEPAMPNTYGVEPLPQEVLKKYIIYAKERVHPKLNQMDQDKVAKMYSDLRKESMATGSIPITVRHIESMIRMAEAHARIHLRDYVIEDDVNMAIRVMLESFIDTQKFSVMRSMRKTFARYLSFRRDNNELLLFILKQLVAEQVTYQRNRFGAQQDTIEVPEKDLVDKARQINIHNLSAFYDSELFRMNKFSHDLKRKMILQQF
T1 sequence (P25205 whole entry, further chain): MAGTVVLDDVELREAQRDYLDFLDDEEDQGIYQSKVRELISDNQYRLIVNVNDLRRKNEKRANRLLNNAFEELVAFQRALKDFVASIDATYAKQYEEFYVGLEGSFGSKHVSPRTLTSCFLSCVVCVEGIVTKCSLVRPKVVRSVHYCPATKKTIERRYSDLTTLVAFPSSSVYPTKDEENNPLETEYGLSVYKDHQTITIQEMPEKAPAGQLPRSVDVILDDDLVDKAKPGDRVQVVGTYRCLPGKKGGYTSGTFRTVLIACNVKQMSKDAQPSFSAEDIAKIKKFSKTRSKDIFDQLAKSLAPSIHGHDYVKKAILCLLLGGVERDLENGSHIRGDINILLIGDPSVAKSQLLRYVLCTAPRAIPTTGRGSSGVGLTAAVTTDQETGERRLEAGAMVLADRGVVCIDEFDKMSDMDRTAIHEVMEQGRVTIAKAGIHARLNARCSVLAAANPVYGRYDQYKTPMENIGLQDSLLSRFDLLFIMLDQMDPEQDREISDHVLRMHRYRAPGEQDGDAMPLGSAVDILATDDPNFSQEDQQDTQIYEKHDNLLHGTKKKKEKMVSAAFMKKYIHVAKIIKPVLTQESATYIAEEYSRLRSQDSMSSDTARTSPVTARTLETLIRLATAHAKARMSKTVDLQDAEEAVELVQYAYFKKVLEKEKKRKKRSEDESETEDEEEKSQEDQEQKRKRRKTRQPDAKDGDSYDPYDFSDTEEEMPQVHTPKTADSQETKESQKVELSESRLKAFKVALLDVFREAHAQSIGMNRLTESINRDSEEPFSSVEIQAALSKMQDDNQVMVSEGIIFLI
T1 sequence (P33991 whole entry, further chain): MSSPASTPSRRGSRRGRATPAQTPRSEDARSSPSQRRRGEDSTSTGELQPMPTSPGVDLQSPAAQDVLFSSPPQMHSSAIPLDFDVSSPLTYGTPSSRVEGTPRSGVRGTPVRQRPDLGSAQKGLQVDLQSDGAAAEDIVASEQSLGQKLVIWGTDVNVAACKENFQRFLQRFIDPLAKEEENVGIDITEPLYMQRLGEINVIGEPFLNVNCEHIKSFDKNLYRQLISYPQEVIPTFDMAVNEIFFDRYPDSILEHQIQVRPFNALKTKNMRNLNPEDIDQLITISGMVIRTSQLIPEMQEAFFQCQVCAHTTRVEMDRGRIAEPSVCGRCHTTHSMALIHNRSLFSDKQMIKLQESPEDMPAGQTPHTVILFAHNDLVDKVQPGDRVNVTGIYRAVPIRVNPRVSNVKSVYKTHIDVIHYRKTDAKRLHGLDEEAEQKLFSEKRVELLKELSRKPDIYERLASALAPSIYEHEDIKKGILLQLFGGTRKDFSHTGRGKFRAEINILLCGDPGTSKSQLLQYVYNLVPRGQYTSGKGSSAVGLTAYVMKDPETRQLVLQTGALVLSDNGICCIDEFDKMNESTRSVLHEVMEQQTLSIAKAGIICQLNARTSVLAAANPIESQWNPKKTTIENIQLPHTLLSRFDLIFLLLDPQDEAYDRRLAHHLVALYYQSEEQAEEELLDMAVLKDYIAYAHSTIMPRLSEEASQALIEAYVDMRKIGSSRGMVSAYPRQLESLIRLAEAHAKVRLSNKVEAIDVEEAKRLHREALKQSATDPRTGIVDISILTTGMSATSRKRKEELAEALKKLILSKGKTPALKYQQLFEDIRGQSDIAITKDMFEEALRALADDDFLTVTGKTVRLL
T1 sequence (P33992 whole entry, further chain): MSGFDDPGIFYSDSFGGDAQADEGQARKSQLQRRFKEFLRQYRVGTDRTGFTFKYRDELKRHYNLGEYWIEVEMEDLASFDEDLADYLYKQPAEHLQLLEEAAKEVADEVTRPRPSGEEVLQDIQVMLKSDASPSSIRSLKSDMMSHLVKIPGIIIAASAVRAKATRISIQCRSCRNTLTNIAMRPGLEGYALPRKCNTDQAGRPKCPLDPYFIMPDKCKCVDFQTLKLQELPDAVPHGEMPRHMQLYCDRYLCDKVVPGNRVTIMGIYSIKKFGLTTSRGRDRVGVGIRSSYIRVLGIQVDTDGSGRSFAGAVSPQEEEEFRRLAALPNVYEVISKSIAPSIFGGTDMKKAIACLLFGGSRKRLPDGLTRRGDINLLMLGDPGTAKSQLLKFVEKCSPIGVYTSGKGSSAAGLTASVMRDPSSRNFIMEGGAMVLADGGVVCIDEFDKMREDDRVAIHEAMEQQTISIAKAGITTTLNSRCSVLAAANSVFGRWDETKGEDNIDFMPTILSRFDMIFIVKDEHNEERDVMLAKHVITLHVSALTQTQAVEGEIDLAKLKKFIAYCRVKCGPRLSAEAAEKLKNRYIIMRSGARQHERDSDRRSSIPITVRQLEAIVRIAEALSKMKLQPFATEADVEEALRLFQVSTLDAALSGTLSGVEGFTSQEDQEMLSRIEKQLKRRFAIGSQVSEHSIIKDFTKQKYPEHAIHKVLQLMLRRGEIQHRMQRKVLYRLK
T1 sequence (Q14566 whole entry, further chain): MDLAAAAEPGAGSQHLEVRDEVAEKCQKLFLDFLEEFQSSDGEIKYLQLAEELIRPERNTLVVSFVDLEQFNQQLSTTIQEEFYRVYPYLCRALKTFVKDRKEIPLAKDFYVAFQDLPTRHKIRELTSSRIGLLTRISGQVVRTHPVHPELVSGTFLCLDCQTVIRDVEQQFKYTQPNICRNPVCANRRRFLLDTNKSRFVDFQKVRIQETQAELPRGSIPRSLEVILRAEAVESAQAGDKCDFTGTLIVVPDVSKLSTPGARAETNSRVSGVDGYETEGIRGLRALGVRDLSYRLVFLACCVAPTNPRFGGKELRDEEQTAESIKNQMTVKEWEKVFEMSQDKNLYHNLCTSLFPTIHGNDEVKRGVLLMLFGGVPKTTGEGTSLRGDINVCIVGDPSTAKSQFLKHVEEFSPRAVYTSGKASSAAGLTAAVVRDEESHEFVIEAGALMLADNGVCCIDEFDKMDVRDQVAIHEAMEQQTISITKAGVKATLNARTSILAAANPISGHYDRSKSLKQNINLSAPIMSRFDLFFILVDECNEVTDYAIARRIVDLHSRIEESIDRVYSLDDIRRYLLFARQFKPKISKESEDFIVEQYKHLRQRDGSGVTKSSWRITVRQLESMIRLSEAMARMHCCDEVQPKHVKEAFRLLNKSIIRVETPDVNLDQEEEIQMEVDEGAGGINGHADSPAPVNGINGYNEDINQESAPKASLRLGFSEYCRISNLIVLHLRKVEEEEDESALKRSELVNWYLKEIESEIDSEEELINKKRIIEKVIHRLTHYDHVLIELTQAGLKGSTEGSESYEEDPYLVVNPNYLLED
T1 sequence (P33993 whole entry, further chain): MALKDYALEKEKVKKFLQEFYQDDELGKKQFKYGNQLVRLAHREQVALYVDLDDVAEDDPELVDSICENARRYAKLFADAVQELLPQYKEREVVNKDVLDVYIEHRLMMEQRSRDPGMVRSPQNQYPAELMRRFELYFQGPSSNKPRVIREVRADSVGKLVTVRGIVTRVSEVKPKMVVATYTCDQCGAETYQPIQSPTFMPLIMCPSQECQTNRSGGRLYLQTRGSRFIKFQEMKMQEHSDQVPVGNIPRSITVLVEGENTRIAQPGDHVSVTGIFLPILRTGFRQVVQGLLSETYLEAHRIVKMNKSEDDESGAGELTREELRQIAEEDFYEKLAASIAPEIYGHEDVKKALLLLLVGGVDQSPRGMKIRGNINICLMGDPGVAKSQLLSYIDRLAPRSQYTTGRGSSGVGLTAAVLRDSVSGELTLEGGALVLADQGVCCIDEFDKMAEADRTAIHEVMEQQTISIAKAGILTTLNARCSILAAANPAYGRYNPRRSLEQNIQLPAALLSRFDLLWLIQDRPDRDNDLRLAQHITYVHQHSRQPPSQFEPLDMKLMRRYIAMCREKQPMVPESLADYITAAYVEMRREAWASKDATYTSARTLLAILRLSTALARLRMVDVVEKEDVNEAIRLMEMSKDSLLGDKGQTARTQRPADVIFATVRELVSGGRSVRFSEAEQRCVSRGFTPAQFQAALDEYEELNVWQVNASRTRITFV

`COc1cc([C@@H]2c3cc4c(cc3[C@@H](O[C@@H]3O[C@@H]5CO[C@@H](C)O[C@H]5[C@H](O)[C@H]3O)[C@H]3COC(=O)[C@H]23)OCO4)cc(OC)c1O` [etoposide] was tested, and the “hCMG helicase inhibition by etoposide” value ([1]; fork-unwinding) was “does not inhibit hCMG activity”, the “hCMG helicase inhibition by etoposide” value ([1]; fork-unwinding, listed as Etoposide) was “no effect on hCMG helicase activity in vitro” and the “DNA replication (BrdU), early S-phase treatment” value (HaCaT cells) was “effectively suppressed DNA replication”. For the same compound, the “DNA polymerases-a and -d on chromatin” value [2] was “small change” and the “replisome components or RPA on chromatin” value [2] was “does not significantly diminish replisome components or RPA on chromatin”.

`CO[C@@H]1[C@@H](OC(=O)c2ccc(C)[nH]2)[C@@H](O)C(O)OC1(C)C` (mixture of isomers) [MBC-D1, (3R,4S,5R)-5,6-Dihydroxy-3-methoxy-2,2-dimethyltetrahydro-2H-pyran-4-y 5-methyl-1H-pyrrole-2-carboxylate] was tested, and the “inhibition of hCMG helicase activity, SAR set” value (“inhibition … SAR set” for short) [1] was “only a small level of inhibition”.

With “(3R,4S,5R,6R)-5-Hydroxy-6-((4-hydroxy-3-(4-hydroxy-3-(3-methylbut-2-en-1-yl)benzamido)-8-methyl-2-oxo-2H-chromen-7-yl)oxy)-3-methoxy-2,2-dimethyltetrahydro-2H-pyran-4-yl [MBC]” the “inhibition … SAR set” value [1] was “potently inhibit the hCMG”.

Compound `CO[C@@H]1[C@@H](OC(=O)c2ccc(C)[nH]2)[C@@H](O)[C@H](Oc2ccc3c(O)c(NC(=O)c4ccc(O)c(CC=C(C)C)c4)c(=O)oc3c2C)OC1(C)C` [MBC, (3R,4S,5R,6R)-5-Hydroxy-6-((4-hydroxy-3-(4-hydroxy-3-(3-methylbut-2-en-1-yl)benzamido)-8-methyl-2-oxo-2H-chromen-7-yl)oxy)-3-methoxy-2,2-dimethyltetrahydro-2H-pyran-4-yl] has an IC50 ([1]; fork-unwinding, read-out: IC50 for hCMG helicase inhibition) of about 59 µM.

`Nc1ncnc2c1ncn2[C@@H]1O[C@H](COP(=O)(O)OP(=O)(O)OP(O)(O)=S)[C@@H](O)[C@H]1O` [ATP-γ-S] was tested, and the “suppression of fork-unwinding activity” value ([1]; 500 μM ATP, increasing ATP-gamma-S) was “dose-dependent suppression of fork-unwinding activity”.

For `CC(C)=CCc1cc(C(=O)Nc2c(O)c3ccc(O)c(C)c3oc2=O)ccc1O` [MBC-D2, N-(4,7-Dihydroxy-8-methyl2-oxo-2H-chromen-3-yl)-4-hydroxy-3-(3-methylbut-2-en-1-yl)benzamide], the “inhibition … SAR set” value [1] was “somewhat effective at inhibiting the hCMG”.

For `CO[C@@H]1[C@@H](O)[C@@H](O)[C@H](Oc2ccc3c(O)c(NC(=O)c4ccc(O)c(CC=C(C)C)c4)c(=O)oc3c2C)OC1(C)C` [MBC-D3, N-(7-(((2R,3R,4S,5R)-3,4-Dihydroxy-5-methoxy-6,6-dimethyltetrahydro-2H-pyran-2-yl)oxy)-4-hydroxy-8-methyl-2-oxo-2H-chromen-3-yl)-4-hydroxy-3-(3-methylbut-2-en-1-yl)benzamide], the “inhibition … SAR set” value [1] was “this inhibition of the hCMG is diminished when the noviose sugar is added”.

With `O=C(O)c1cn(C2CC2)c2cc(N3CCNCC3)c(F)cc2c1=O` [ciprofloxacin] the “hCMG helicase inhibition by quinolones” value ([1]; 100 μM or 1000 μM) was “do not inhibit the purified hCMG helicase”.

For `Nc1ncnc2c1ncn2[C@@H]1O[C@H](COP(=O)(O)OP(=O)(O)O)[C@@H](O)[C@H]1O` [ADP], the “ADP conversion rate by the hCMG” value [3] was ~ 1.5% and the “production of ADP” value ([3]; 10 μL reaction, 1 hr) was 7 to 8 µM.
